Experimental data reported in ChEMBL document CHEMBL1201862, “PubChem BioAssay data set” (2004).
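Interpolation was linear, between the two tested concentrations surrounding the appropriate level; five concentrations were tested over 48 hours in 96-well plates. GI50 is the concentration that inhibits growth by half.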 Active and inactive are the calls of the source. No stated cut-off is given here; in the data, active = GI50 up to about 1.1 µM and inactive = higher.

How the values were obtained:
Experiment in all cases: DTP human tumour cell line panel, 48 h
[1] = tested on: MOLT-4
[2] = tested on: NCI/ADR-RES
[3] = tested on: T47D
[4] = tested on: MDA-MB-231
[5] = tested on: ACHN
[6] = tested on: OVCAR-5
[7] = tested on: MCF7
[8] = tested on: SK-MEL-2
[9] = tested on: KM12
[10] = tested on: PC-3
[11] = tested on: LOX IMVI
[12] = tested on: IGROV-1
[13] = tested on: NCI-H522
[14] = tested on: NCI-H226
[15] = tested on: HT-29
[16] = tested on: CAKI-1
[17] = tested on: RPMI-8226
[18] = tested on: SR
[19] = tested on: OVCAR-3
[20] = tested on: SNB-75
[21] = tested on: M14
[22] = tested on: SK-MEL-28
[23] = tested on: COLO 205
[24] = tested on: SF-539
[25] = tested on: RXF 393
[26] = tested on: BT-549
[27] = tested on: K562
[28] = tested on: SK-OV-3
[29] = tested on: SN12C
[30] = tested on: HOP-92
[31] = tested on: TK-10
[32] = tested on: NCI-H460
[33] = tested on: MDA-MB-435
[34] = tested on: HCT-116
[35] = tested on: SW-620
[36] = tested on: UACC-257
[37] = tested on: A498
[38] = tested on: DU-145
[39] = tested on: HL-60
[40] = tested on: CCRF-CEM
[41] = tested on: A549
[42] = tested on: Hs-578T
[43] = tested on: NCI-H23
[44] = tested on: HOP-62
[45] = tested on: SK-MEL-5
[46] = tested on: OVCAR-4
[47] = tested on: Malme-3M
[48] = tested on: SF-295
[49] = tested on: EKVX
[50] = tested on: U-251
[51] = tested on: HCT-15
[52] = tested on: OVCAR-8
[53] = tested on: 786-0
[54] = tested on: MDA-N
[55] = tested on: UACC-62
[56] = tested on: SF-268
[57] = tested on: SNB-19
[58] = tested on: UO-31
[59] = tested on: HCC 2998

Measured: GI50

O=C(O)CNCP(=O)(O)O [GLYPHOSATE]
> 100 µM: [51]
inactive: [1] > 100 µM | [2] > 100 µM | [3] > 100 µM | [4] > 100 µM | [5] > 100 µM | [6] > 100 µM | [7] > 100 µM | [8] > 100 µM | [9] > 100 µM | [10] > 100 µM | [11] > 100 µM | [12] > 100 µM | [13] > 100 µM | [14] > 100 µM | [15] > 100 µM | [16] > 100 µM | [17] > 100 µM | [18] > 100 µM | [19] > 100 µM | [20] > 100 µM | [21] > 100 µM | [22] > 100 µM | [23] > 100 µM | [24] > 100 µM | [25] > 100 µM | [26] > 100 µM | [27] > 100 µM | [28] > 100 µM | [29] > 100 µM | [30] > 100 µM | [31] > 100 µM | [32] > 100 µM | [33] > 100 µM | [34] > 100 µM | [35] > 100 µM | [36] > 100 µM | [37] > 100 µM | [38] > 100 µM | [39] > 100 µM | [40] > 100 µM | [41] > 100 µM | [42] > 100 µM | [43] > 100 µM | [44] > 100 µM | [45] > 100 µM | [46] > 100 µM | [47] > 100 µM | [48] > 100 µM | [49] > 100 µM | [50] > 100 µM | [52] > 100 µM | [53] > 100 µM | [54] > 100 µM | [55] > 100 µM | [56] > 100 µM | [57] > 100 µM

OCCNCNc1nc(NCNCCO)nc(N(CNCCO)CNCCO)n1
25.2 µM: [51]
inactive: [1] 23.2 µM | [2] 24.4 µM | [3] 23.7 µM | [4] 22.8 µM | [58] 33.2 µM | [5] 27 µM | [6] 13.6 µM | [7] 28.1 µM | [8] 21.5 µM | [9] 39.4 µM | [10] 22.3 µM | [11] 17 µM | [12] 22.6 µM | [13] 21.3 µM | [14] 22.6 µM | [15] 21.7 µM | [16] 22.4 µM | [17] > 43.8 µM | [19] 22.6 µM | [20] 24.7 µM | [21] 19 µM | [22] 24.4 µM | [23] 15.7 µM | [24] 19.6 µM | [25] 15 µM | [26] 21.1 µM | [27] 19.9 µM | [28] > 43.7 µM | [29] 22.3 µM | [30] 21.9 µM | [31] 28.8 µM | [32] 21.9 µM | [59] 18.9 µM | [33] 18.2 µM | [34] 18.7 µM | [35] 19.8 µM | [36] 18.2 µM | [37] 28.1 µM | [38] 18.5 µM | [39] 20.5 µM | [40] 12.2 µM | [41] 27.2 µM | [42] 32 µM | [43] 21.2 µM | [44] 19.5 µM | [45] 15.1 µM | [46] 25.9 µM | [47] 18.5 µM | [48] 30.6 µM | [49] 25.3 µM | [50] 21.1 µM | [52] 24.3 µM | [53] 17.7 µM | [54] 19.2 µM | [55] 18.8 µM | [56] 23.7 µM | [57] 17.1 µM

NS(=O)(=O)c1cc(Br)c(/N=N\c2ccc(O)c3ncccc23)c(Br)c1
4.27 µM: [51]
inactive: [1] 3.99 µM | [2] 13.2 µM | [3] 39 µM | [4] 51.1 µM | [58] 21.3 µM | [5] 4.34 µM | [6] 71.6 µM | [7] 11.5 µM | [8] 28 µM | [9] 37.8 µM | [10] 29.8 µM | [11] 20.9 µM | [12] 11 µM | [13] 16.5 µM | [14] 45 µM | [15] > 100 µM | [16] 37.9 µM | [17] 7.26 µM | [18] 9.46 µM | [19] 54.6 µM | [20] 21.7 µM | [21] 13.1 µM | [22] 27.4 µM | [23] > 100 µM | [24] 25.9 µM | [25] 46.5 µM | [26] 16.4 µM | [27] 20 µM | [28] 47.8 µM | [29] 22.3 µM | [30] 41.8 µM | [31] 22.3 µM | [32] 25.3 µM | [33] 29.2 µM | [34] 26.7 µM | [35] 34.8 µM | [36] 19.6 µM | [37] 18.6 µM | [38] 47 µM | [39] 6.04 µM | [40] 3.78 µM | [41] 18.5 µM | [42] 21.8 µM | [43] 17.9 µM | [44] 25.5 µM | [45] 30.7 µM | [46] 43.6 µM | [47] 13.5 µM | [48] 42.6 µM | [49] 32.3 µM | [50] 19.1 µM | [52] 35.2 µM | [53] 23.6 µM | [54] 14.6 µM | [55] 21.8 µM | [56] 15.9 µM | [57] 19.5 µM
